pIC50: −log10 of the molar value. Where two headings read alike, the source gives them in different places.

Consider five compounds from paper PMC5064002, “Sintokamide A Is a Novel Antagonist of Androgen Receptor That Uniquely Binds Activation Function-1 in Its Amino-terminal Domain” (The Journal of Biological Chemistry, 2016).

For one experiment, the system named is Tau5. The arrangement: method as in PMID 27356095. The settings on record: contact to residues 353–364, 397–407 and 433–466; cited from earlier work.
The target in experiment [1] is T1, AR (Homo sapiens, UniProt P10275, T878A).
T1 construct: endogenous in cells; host or cells: LNCaP
T1 sequence (P10275 1-920 T878A): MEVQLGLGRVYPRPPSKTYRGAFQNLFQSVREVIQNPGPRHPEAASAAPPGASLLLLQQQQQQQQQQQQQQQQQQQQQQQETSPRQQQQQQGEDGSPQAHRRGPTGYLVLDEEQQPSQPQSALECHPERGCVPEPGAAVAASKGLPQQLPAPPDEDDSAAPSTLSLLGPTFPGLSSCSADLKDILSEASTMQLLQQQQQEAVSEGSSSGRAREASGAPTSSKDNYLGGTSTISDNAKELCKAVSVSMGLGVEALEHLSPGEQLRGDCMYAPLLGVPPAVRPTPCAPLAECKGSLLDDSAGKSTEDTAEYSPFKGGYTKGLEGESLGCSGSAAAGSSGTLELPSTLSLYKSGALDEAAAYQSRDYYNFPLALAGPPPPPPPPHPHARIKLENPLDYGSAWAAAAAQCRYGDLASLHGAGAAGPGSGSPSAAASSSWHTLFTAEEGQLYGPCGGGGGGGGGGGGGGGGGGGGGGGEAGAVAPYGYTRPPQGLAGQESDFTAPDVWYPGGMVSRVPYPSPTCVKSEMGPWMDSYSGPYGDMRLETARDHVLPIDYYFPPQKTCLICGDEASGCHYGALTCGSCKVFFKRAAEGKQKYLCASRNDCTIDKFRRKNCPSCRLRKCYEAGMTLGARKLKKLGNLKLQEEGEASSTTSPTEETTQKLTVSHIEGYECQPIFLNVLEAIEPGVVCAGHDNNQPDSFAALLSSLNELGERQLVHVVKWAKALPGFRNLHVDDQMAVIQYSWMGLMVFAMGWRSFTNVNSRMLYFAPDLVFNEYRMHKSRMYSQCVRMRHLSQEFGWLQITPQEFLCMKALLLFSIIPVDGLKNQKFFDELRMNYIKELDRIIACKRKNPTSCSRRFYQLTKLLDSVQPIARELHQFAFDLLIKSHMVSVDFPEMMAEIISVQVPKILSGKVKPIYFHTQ
The arrangement: method as in PMID 23722902. The settings on record: cited from earlier work.

For the next experiment, the target named is T2, endogenous FL-AR (Homo sapiens, UniProt P10275, T878A).
T2 construct: endogenous in cells; host or cells: LNCaP
T2 sequence (P10275 1-920 T878A): T1 sequence (P10275 1-920 T878A)
Kind of experiment: Binding assay of click chemistry probes to full-length AR in LNCaP cells. The settings on record: 20 μM LPY probes or 25 μM EPI-053, click chemistry, Western blot. The protocol: LNCaP cells were treated for 24 h with 20 μM modified SINT1 (LPY19, -30, and -31) or the vehicle dimethyl sulfoxide (DMSO). 25 μM EPI-053 (a modified EPI-001 analog) was used as positive control ([5]). Proteins were extracted with lysis buffer and subjected to click chemistry conditions for 3 h at 25 °C in buffer containing 0.1% SDS, 5% t-butyl alcohol, 100 μM tris[(1-benzyl-1H-1,2,3-triazol-4-yl)methyl]amine (Sigma), 1 mM tris(2-carboxyethyl)phosphine, 100 μM biotin-azide reagent, and 1 mM CuSO4. Samples were dialyzed in 50 mM HEPES, pH 8.0, 150 mM NaCl, 0.1% SDS, and 1% Triton X-100 to remove excess biotin-azide reagent. Biotinylated soluble receptors were captured with streptavidin-agarose resin. Protein-SINT1 complexes were separated by 10% SDS-PAGE and subjected to Western blotting analysis using AR-N20 (1:1000) and biotin (1:1000) antibodies. Proteins were visualized using ECL detection reagent (Amersham Biosciences).
To reveal whether SINT1 binds to endogenous AR, LNCaP cells were incubated with modified SINT1 click chemistry probes (LPY19, LPY30, and LPY31 shown in Fig. 2A). The EPI-002 click chemistry probe EPI-053 was used as a positive control ([5]). […] LNCaP cells were incubated overnight with these probes prior to click chemistry to add biotin to each click chemistry probe (see schema in Fig. 2B, right). Cell lysates were used for immunoprecipitation with streptavidin to isolate those proteins bound to biotinylated probes. Immunocomplexes were split with one aliquot used for Western blotting analysis using an antibody to biotin (Fig. 2B, left) and the other aliquot for Western blotting analysis using an antibody to AR (Fig. 2B, middle). […] Consistent with these biotin bands corresponding to AR, the AR was immunoprecipitated with streptavidin only in those immunocomplexes that were both positive for biotin (Fig. 2B) and biologically active against AR transcriptional activity (EPI-053, LPY30, and LPY31).

The target in experiment [2] is T3, Histidine-tagged AR AF-1 recombinant protein (Homo sapiens, UniProt P10275).
T3 construct: made in house
T3 sequence (P10275 142-485): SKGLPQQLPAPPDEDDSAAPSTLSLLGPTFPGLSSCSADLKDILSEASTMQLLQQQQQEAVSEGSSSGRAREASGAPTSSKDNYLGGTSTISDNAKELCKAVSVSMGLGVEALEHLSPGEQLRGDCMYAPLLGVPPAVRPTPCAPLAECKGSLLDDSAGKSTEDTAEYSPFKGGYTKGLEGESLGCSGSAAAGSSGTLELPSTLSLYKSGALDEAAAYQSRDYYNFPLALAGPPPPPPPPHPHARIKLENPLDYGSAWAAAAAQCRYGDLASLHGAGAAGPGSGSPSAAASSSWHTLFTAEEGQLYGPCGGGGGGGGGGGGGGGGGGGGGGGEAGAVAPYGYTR
Nature of the experiment: Binding assay of click chemistry probes to recombinant AR AF-1. Conditions: cell-free, AF1-His tag, 1:10 molar ratio, 37 °C 3 h. On the procedure: Histidine-tagged AR AF-1 recombinant protein was expressed and purified as described ([5]). The binding reaction was carried out by mixing AR AF-1 protein with alkyne-containing LPY probes or DMSO at a 1:10 molar ratio and incubated in buffer containing 10 mM HEPES, pH 7.9, and 100 mM NaCl at 37 °C for 3 h. LPY probes were labeled with biotin by copper-catalyzed click chemistry reaction at 25 °C for 1 h ([5]). Samples were resolved by 10% SDS-PAGE, and Western blotting was performed to detect biotin and histidine-tagged AR AF-1 using IRDye® 680LT streptavidin (1:5000) and anti-His (1:1000) antibody, respectively.
Therefore, we next evaluated whether SINT1 binds the AF-1 region in AR NTD. Purified recombinant AF-1 protein (AF1-His tag) was incubated under cell-free conditions with LPY19, LPY30, and LPY31 prior to click chemistry to add a biotin to the LPY probe (see schema in Fig. 2C, right).

Experiment [3] has as its target T1, AR. Kind of experiment: AR transcriptional activity of SINT1 click chemistry probes, PSA (6.1 kb)-luciferase in LNCaP cells. The format is cell-based. Conditions: for biological activity measured using an AR-driven reporter gene construct: 40 μM LPY19, 20 μM LPY30 and LPY31. The protocol:
FIGURE 2. SINT1 binds endogenous AR in living cells to inhibit transactivation of AR NTD. A, chemical structures of EPI-002, EPI-053, LPY19, LPY30, LPY31, and SINT1 (left). The effect of SINT1 probes in AR transcriptional activity was tested in LNCaP cells transiently transfected with PSA (6.1 kb)-luciferase and exposed for 1 h to 40 μM LPY19 and 20 μM LPY30 and LPY31 before induction with 1 nM […] for 48 h. Error bars represent the mean ± S.E. of n = 3 independent experiments with triplicate wells (right). B, binding of SINT1 click chemistry analogs to FL-AR in cells. LNCaP cells were exposed to modified SINT1 (LPY19, -30, and -31), EPI-053, or DMSO vehicle overnight prior to preparing whole cell lysates for click chemistry reactions. Biotinylated SINT1 or EPI probes bound to proteins were captured with streptavidin-agarose resin prior to separation by 10% SDS-PAGE and subjected to Western blotting analysis with antibodies directed to either biotin (left) or AR (middle). Red boxes highlight where AR migrates on the gel. Right, schema of experiment. […] Right, schema of experiment.
(In general: In a reporter assay the amount or activity of a reporter protein is the signal.)

The target in experiment [4] is T4, progesterone receptor (PR)-β (Homo sapiens, UniProt P06401).
T4 construct: expressed in transfected cells; host or cells: LNCaP
T4 sequence (P06401 1-933): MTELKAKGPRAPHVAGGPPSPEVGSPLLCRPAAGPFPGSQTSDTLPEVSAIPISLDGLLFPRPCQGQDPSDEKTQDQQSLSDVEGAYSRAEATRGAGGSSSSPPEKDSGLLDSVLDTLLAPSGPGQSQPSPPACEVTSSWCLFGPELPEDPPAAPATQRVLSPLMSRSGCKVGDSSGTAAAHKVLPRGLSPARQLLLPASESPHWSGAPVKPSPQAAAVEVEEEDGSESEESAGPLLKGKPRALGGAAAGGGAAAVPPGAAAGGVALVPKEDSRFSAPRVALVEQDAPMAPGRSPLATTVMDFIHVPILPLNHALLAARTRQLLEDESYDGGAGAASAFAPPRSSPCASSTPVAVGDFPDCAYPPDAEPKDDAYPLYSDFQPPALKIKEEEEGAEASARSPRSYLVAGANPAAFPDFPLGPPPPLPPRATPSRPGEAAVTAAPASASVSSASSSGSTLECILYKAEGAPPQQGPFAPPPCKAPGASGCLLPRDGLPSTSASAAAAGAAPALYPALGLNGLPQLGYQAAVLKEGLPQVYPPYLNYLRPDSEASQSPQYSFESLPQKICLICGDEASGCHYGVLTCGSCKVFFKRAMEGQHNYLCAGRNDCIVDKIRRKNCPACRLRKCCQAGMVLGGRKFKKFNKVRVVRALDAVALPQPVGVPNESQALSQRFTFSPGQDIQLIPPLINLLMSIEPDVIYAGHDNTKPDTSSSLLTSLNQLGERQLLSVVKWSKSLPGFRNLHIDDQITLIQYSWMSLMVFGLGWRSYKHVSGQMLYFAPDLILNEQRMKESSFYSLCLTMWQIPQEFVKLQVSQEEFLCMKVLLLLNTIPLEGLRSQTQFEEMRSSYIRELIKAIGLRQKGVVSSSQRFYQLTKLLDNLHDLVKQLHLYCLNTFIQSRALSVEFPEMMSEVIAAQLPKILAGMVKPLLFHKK
Kind of experiment: Steroid receptor specificity: PRE-luciferase reporter in LNCaP cells. The format is cell-based. The settings on record: 10 μM compound, 10 nM 4-pregnene-3,20-dione, 48 h. On the procedure: LNCaP cells were transfected with the reporter plasmid PSA(6.1kb)-luciferase, PRE-luciferase, or GRE-luciferase and expression vector for progesterone receptor (PR)-β or glucocorticoid receptor (GR)-α in serum-free, phenol red-free medium using Lipofectin (Invitrogen). […] After 48 h of treatment, cells were lysed and analyzed for luciferase activities.
FIGURE 1. […] A, LNCaP cells were transfected with PSA (6.1 kb)-luciferase, PRE-luciferase, or GRE-luciferase reporters and expression vector for PRβ or GRα. […] Error bars represent mean percentage of vehicle activity ±S.E. of at least three independent experiments with triplicate wells. SINT1, 10 μM; […]; ***, p < 0.001. […]. Error bars represents mean ± S.E. of three technical replicates. […] DAPI staining indicates the location of the nucleus. Scale bars, 20 μm.

For another experiment, the system named is LNCaP95 cells. Kind of experiment: Cell proliferation (BrdU incorporation), LNCaP95. In kind it is cell-based. The settings on record: 48 h. The protocol:
Cells were pulse-labeled with 10 μM BrdU for 2 h. Cells were fixed, and BrdU-labeled cells were identified with anti-BrdU-peroxidase (Roche Applied Science). BrdU incorporation was measured at 570 nm using a VersaMax ELISA microplate reader (Molecular Devices). At least three independent experiments with six technical replicates were analyzed, and average values are indicated.

Setting [5] is: LNCaP, PSA (6.1 kb)-luciferase, 1 nM R1881 48 h.

With `CC(C)(c1ccc(OCC(O)CO)cc1)c1ccc(OCC(O)CCl)cc1` (stereo not drawn) [EPI-001], the “binding to Tau5 by NMR spectroscopy” value in the experiment on Tau5 is reported as “binds in a pocket in Tau5”.

`C#CCOC[C@H](O)COc1ccc(C(C)(C)c2ccc(OC[C@H](O)CCl)cc2)cc1` [EPI-053, reference compound]: on AR [1], the “biological activity measured using an AR-driven reporter gene construct” value (from here on “biological activity measured”) was “had biological activity”. The “binding to endogenous FL-AR (biotin band corresponding to AR after streptavidin capture)” value (shortened to “binding to endogenous FL-AR”) at endogenous FL-AR was “a band corresponding to AR”.

In general, pIC50 refers to −log10 of the IC50, conventionally taken in molar units. In the case of `C#CCCC(=O)N[C@H](CC(C)C)C(=O)N1C(=O)C=C(OC)[C@@H]1CC(C)C` [LPY19], the “binding of biotinylated probe to AF-1” value in experiment [2] is on record as “no binding”. For the same compound, the “activity at 20 μM, AR-driven reporter” value on AR [3] (20 μM) is “inactive”. At AR [3] (LNCaP, PSA (6.1 kb)-luciferase, 1 nM R1881 48 h, read-out: IC50, AR-driven reporter gene construct), the pIC50 is around 4.40. Moreover, the “biological activity measured” value at AR [3] (setting [5]) is “very weak activity”. In addition, the “binding to endogenous FL-AR” value at endogenous FL-AR was “not”.

Take `C#CCCC(=O)NC(CCC(Cl)(Cl)Cl)C(=O)N1C(=O)C=C(OC)C1CCC(Cl)(Cl)Cl` (stereo not shown) [LPY30]: the “binding of biotinylated probe to AF-1” value in experiment [2] is given as “binding”. Also, the “biological activity measured” value on AR [3] (setting [5]) is reported as “had biological activity”. The “binding to endogenous FL-AR” value at endogenous FL-AR is reported as “a band corresponding to AR”.

Take `CC(O)(CS(=O)(=O)c1ccc(F)cc1)C(=O)Nc1ccc(C#N)c(C(F)(F)F)c1` (stereo not shown) [bicalutamide, reference compound]: the “PR transcriptional activity (PRE-luciferase)” value in experiment [4] is listed as “inhibited”. In addition, the “proliferation of LNCaP95 cells” value in the experiment with LNCaP95 cells is reported as “no effect”.
